Assay results as given in PMC7995547, “ω‐Imidazolyl‐alkyl derivatives as new preclinical drug candidates for treating non‐alcoholic steatohepatitis” (Physiological Reports, 2021).
“And” between values parts separate entries of the source, which are not always exact repeats. Identical values can stand only once.

How the values were obtained:
Type in all cases: in vivo, Wistar rats
[1] = system: HFD‐induced NASH rat model (liver); experiment: Oxidative stress (ROS status) in the liver, HFD-induced NASH rat model; conditions: for Dose dependence of the effect on SRA level: Pearson correlation / linear regression; for Increase in GR activity compared to disease group: I‐ol, I‐an groups overall; for Increase in GR activity compared to disease group / Decrease in SRA level compared to disease group / Decrease in TBARS level compared to disease group / Reduction of the effect of HFD on the SRA level / Reduction of the effect of HFD on the TBARS level: UDCA 40 mg/kg b.w.; for Decrease in SRA level compared to disease group: average over 0.4, 4, 40 mg/kg b.w. (I‐ol, I‐an), oral gavage daily, last 4 of 16 weeks HFD; for Decrease in TBARS level compared to disease group / Reduction of the effect of HFD on the SRA level / Reduction of the effect of HFD on the TBARS level: average over doses (I‐ol, I‐an)
Method: (§1) Studies were done using Wistar rats of female sex by the Institute of Pharmacology and Biochemistry at Minsk. The animals were 80–90 days old and weighed 180–200 g. They had free access to a liquid Lieber‐DeCarli (LDC) diet (Lieber et al., 2004) and were housed under standard conditions meaning a 12‐h light/dark cycle at 22 ± 2°C and 55 ± 5% humidity.
The rats were divided into 10 groups based on the diets and experimental substances administered (Figure 2).
(§2) Group 1 was designated as the first control group; it was fed a normal standard solid diet. Group 2, as the second control group, was fed a standard amount of fat as a part of the liquid “physiological,” non‐high fat LDC diet. All other groups received the liquid ‘disease‐causing’ LDC diet (Table 2), including a high content of unsaturated fatty acids.
(§3) Both LDC diets were in a liquid form as produced by ssniff‐Spezialdiäten GmbH, Soest (Germany). The feed was provided over the entire experimental period of 16 weeks; however, the corresponding experimental substances were only administered in the last four weeks (Figure 3).
(§4) The experimental substances I‐ol, I‐an, and UDCA were dissolved in a 0.8% aqueous HPMC gel to obtain the following concentrations: (1) I‐ol at 0.4, 4, and 40 mg/kg body weight (b.w.), (2) I‐an at 0.4, 4, and 40 mg/kg b.w., and (3) UDCA at 40 mg/kg b.w. The Group‐2 and −3 rats received only HPMC as placebo. Each test encompassed 6–8 rats that were put up in a separate cage. The rats were fed ad libitum, and their intake per cage was controlled daily. In order to ensure an exact daily reproducible dosage, the experimental substances or only HPMC was administered intragastrically via oral gavage. Basically, the drug therapy of a chronic disease is the more efficient the higher the adherence of the affected patients. This is generally higher with peroral administration than with any other form of application. At the end of the experiment, the animals were sacrificed under fasting conditions, by aorta dissection and exsanguination, after anesthetizing with an intraperitoneal injection of 5% pentobarbital solution.
The formation of ROS in the rat liver was measured using NADPH‐induced chemiluminescence as described by Müller‐Peddinghaus et al. (Muller‐Peddinghaus, 1987). Luminol and lucigenin were used for detecting the superoxide radical anion (SRA) and hydrogen peroxide. Liver pieces were homogenized in 0.1 M sodium phosphate buffer, pH 7.4; the homogenates were centrifuged at 9,000 × g at 0°C; and aliquots were used for subsequent measurements. Reduced glutathione (GSH) was estimated via a modified Ellman's method (Ellman, 1959), in which 0.2 mL of the liver homogenate supernatant was added to 1.6 mL of an EDTA/sodium phosphoric acid solution and the absorbance noted at 412 nm against blank values. GSH solution produced immediately before application served as the standard. The end products of the lipid peroxidation reaction were equivalent to the thiobarbituric acid‐reacting substances (TBARS), and their concentration was measured according to the method described by Buege et al. (Buege & Aust, 1978). Enzymatic activities of microsomal glutathione reductase (GR) and cytosolic glutathione peroxidase (GPx) were measured according to the methodology of Buko et al. (Buko et al., 2002). Catalase activity was determined according to the spectroscopic methodology described by Beers et al. (Beers & Sizer, 1952) using hydrogen peroxide as the substrate.

[2] = system: HFD‐induced NASH rat model (liver); experiment: Liver histopathology, semi‐quantitative evaluation, NASH rat model; design: key to Steatosis score / Balooning score: 0, none; 1, ≤25%; 2, 26–50%; 3, ≥51–75% of liver parenchyma; conditions: for Balooning score / Inflammation score / Steatosis score: H.E.‐stained liver slices
Method: as §1, §2, §3, §4
Pieces of liver tissue measuring 1 × 2 × 0.5 mm were chosen randomly and fixed for a week in the mixture of 1% formaldehyde and 1% paraformaldehyde in Sorensen's phosphate buffer (pH 7.4) (Morphisto GmbH, Frankfurt/Main). After this the pieces were kept in 2.5% glutaraldehyde in same buffer, rinsed and then post‐fixed in 1% solution of osmium tetroxide on the Sorensen's phosphate buffer (pH 7.4). After fixation, the liver samples were dehydrated and embedded in the pre‐polymerized mixture of methyl methacrylate and butyl methacrylate (1:4, v/v) containing 2,4‐dichlorbenzoyl peroxide as a catalyst.
[…] A semi‐quantitative evaluation of the sections was performed according to the procedure described by Koppe et al. (Koppe et al., 2004).

[3] = system: HFD‐induced NASH rat model (liver); experiment: Area of connective tissue in the liver (Mallory‐Azan staining), NASH rat model
Method: as §1, §2, §3, §4
Liver tissue sections were subject to the Mallory‐Azan (Heidenhain Azan) staining method for visualizing the connective tissues. This method was a modification of the original Mallory staining protocol, wherein azocarmin with a mixture of aniline blue and orange G was used. In this method, the collagen tissue and basophilic granules turn blue, the muscle tissue and acidophilic granules turn orange to red, and the cell nuclei and cytoplasm turn red. Elastic fibers remain unstained; however, they might turn yellow or pink. The proportion of positively stained liver tissue to the total area of the histological slide was determined quantitatively.

[4] = system: HFD‐induced NASH rat model (serum); experiment: Liver enzyme activities and bilirubin in serum, NASH rat model; conditions: for Decrease in serum bilirubin level compared to disease group / Decrease in γ‐GT enzymatic activity compared to disease group / Reduction of the effect of HFD on γ‐GT activity: UDCA 40 mg/kg b.w.; for Decrease in γ‐GT enzymatic activity compared to disease group / Reduction of the effect of HFD on γ‐GT activity: average over doses (I‐ol, I‐an); for Decrease in ALT enzymatic activity compared to disease group / Reduction of the effect of HFD on ALT activity: highest concentrations (40 mg/kg b.w.); for Reduction of the effect of HFD on ALT activity: b87: dose not stated; for Decrease in AP enzymatic activity compared to disease group / Decrease in AST enzymatic activity compared to disease group: number: highest concentration (40 mg/kg b.w.), words: compound overall
Method: as §1, §2, §3, §4
The activities of the liver enzymes aspartate aminotransferase (AST), alanine aminotransferase (ALT), alkaline phosphatase (AP), and γ‐glutamyl transferase (γ‐GT) as well as bilirubin and triglyceride levels in the serum were determined as described by the instructions of BIO‐LA‐tests kit (Erba Lachema, Brno, Czech Republic).

[5] = liver, highest concentration (40 mg/kg b.w.)
[6] = serum, highest concentration (40 mg/kg b.w.)
[7] = lowest concentration (0.4 mg/kg b.w.)

SMILES	Dose dependence of the effect on SRA level ([1]; 0.4, 4, 40 mg/kg b.w.)	Increase in GR activity compared to disease group ([1]; liver)	Decrease in SRA level compared to disease group ([1]; liver)	Decrease in TBARS level compared to disease group ([1]; liver)	Reduction of the effect of HFD on the SRA level ([1]; liver)	Reduction of the effect of HFD on the TBARS level ([1]; liver)	Decrease in hydrogen peroxide level compared to disease group [1, 5]	Hydrogen peroxide level below the reference values of group 1 [1, 5]	Balooning score ([2]; 0.4 mg/kg b.w. + HFD)	Inflammation score ([2]; 0.4 mg/kg b.w. + HFD)	Steatosis score ([2]; 0.4 mg/kg b.w. + HFD)	Balooning score ([2]; 4.0 mg/kg b.w. + HFD)	Inflammation score ([2]; 4.0 mg/kg b.w. + HFD)	Steatosis score ([2]; 4.0 mg/kg b.w. + HFD)	Balooning score ([2]; 40.0 mg/kg b.w. + HFD)	Inflammation score ([2]; 40.0 mg/kg b.w. + HFD)	Steatosis score ([2]; 40.0 mg/kg b.w. + HFD)	Decrease in serum bilirubin level compared to disease group ([4]; average over doses)	Decrease in γ‐GT enzymatic activity compared to disease group ([4]; serum)	Reduction of the effect of HFD on γ‐GT activity ([4]; serum)	further results
CCCCCCCCCCCCn1ccnc1 [I‐an, 1‐imidazolyldodecane]	weak, significant (p < 0.05), linear, dose‐dependent effect	no effect	23%	35%	65%	82%	43%	4%	0–1	1 (1, <5 signs of inflammation)	0–1	1 (1, ≤25%)	1 (1, <5 signs of inflammation)	0–1	0–1	1 (1, <5 signs of inflammation)	0–1	no therapeutic effect	35%	86%	Dose dependence of the effect on GSH level ([1]; 0.4, 4, 40 mg/kg b.w.): weak, significant (p < 0.05), linear, dose‐dependent effect; Increase in GSH level compared to disease group [1, 5]: 63%; Reduction of SRA level [1, 5]: 75%; Reduction of the effect of HFD on GSH level [1, 5]: 87%; Effect on area of connective tissue in the liver (in words) ([3]; compound overall): no therapeutic effect; Dose dependence of the effect on ALT activity ([4]; 0.4, 4, 40 mg/kg b.w.): weak, significant (p < 0.05), linear, dose‐dependent effect; Dose dependence of the effect on AP activity ([4]; 0.4, 4, 40 mg/kg b.w.): weak but significant (p < 0.05), linear, dose‐dependent effect; Dose dependence of the effect on AST activity ([4]; 0.4, 4, 40 mg/kg b.w.): moderate, very highly significant (p < 0.001), linear, dose‐dependent effect; Reduction of the effect of HFD on AP activity [4, 6]: 89%; Reduction of the effect of HFD on AST activity [4, 6]: 92% and 90%; Decrease in ALT enzymatic activity compared to disease group ([4]; serum): 20%; Reduction of the effect of HFD on ALT activity ([4]; serum): 66% and ~70%; Decrease in AP enzymatic activity compared to disease group ([4]; serum): 21%; Decrease in AST enzymatic activity compared to disease group ([4]; serum): 21%
OCCCCCCCCCCCCn1ccnc1 [I‐ol, 12‐imidazolyl‐1‐dodecanol]	strong, very highly significant (p < 0.001), linear, dose‐dependent effect	28%	21%	38%	60%	87%	50%	16%	1 (1, ≤25%)	1–2	0–1	1 (1, ≤25%)	1 (1, <5 signs of inflammation)	0	1 (1, ≤25%)	1 (1, <5 signs of inflammation)	0–1	14%	34%	84%	Dose dependence of the effect on hydrogen peroxide level ([1]; 0.4, 4, 40 mg/kg b.w.): strong, very highly significant (p < 0.001), linear, dose‐dependent effect; Effect on GSH level (in words) ([1]; liver, compound overall): non‐significant trend toward an increasing GSH level; SRA level below the reference value of control group 1 [1, 5]: 24%; Effect of HFD nullified, GR activity increased by (on an average) ([1]; liver, relative to the effect of HFD): 113%; Effect on liver histology (in words) ([2]; animals with NASH (HFD)): dose‐dependent reduction of the pathological signs; Decrease in area of connective tissue in the liver compared to disease group [3, 7]: 28%; Reduction of the effect of HFD on area of connective tissue in the liver [3, 7]: 72%; Dose dependence of the effect on γ‐GT activity ([4]; 0.4, 4, 40 mg/kg b.w.): moderate but very highly significant (p < 0.001), linear, dose‐dependent effect; Serum bilirubin below the levels measured in the disease group and the two control groups ([4]; average over doses): more than 10%; Decrease in ALT enzymatic activity compared to disease group ([4]; serum): 16%; Reduction of the effect of HFD on ALT activity ([4]; serum): 55% and ~70%; Decrease in AP enzymatic activity compared to disease group ([4]; serum): no therapeutic effect; Decrease in AST enzymatic activity compared to disease group ([4]; serum): no therapeutic effect
